Assay results published in patent US20230323395A1, “METHODS AND COMPOSITIONS FOR THE PRODUCTION OF ADENO-[…]” (Homology Medicines, Inc., priority 2021, published 2023).

Key:
Type in all cases: cell-based
[1] = test system: HEK293 cells (AAV producer cells); test: DMSO time course analysis of AAV productivity (Example 4); details: 1.5% (v/v) DMSO added two hours pre-transfection and up to 30 minutes post-transfection; compared to the other time points tested
Protocol: (§1) For each parameter tested, HEK293 cells were expanded by shake flask culture with a target seed density of >0.25E6 viable cells/mL and a target final density of <6E6 viable cells/mL. Expanded cells were inoculated into an Applikon 3 L Glass Bioreactor containing the appropriate amount of cell culture medium prior to transfection at a 2 L working volume.
(§2) Cell transfection was performed generally as described in Grieger et al. (2016) Molecular Therapy 24(2): 287-297. Briefly, transfection mixes were prepared by mixing calculated volumes of vector(s), transfection media, and polyethylenimine (PEI), all at ambient temperature, and allowed to equilibrate before the transfection mixes were added to the cells. […] Productivity was measured by vector genome titer and capsid yield. Vector genome (VG) titer was determined by droplet digital PCR (ddPCR) by standard methods using primer/probe sets specific to the transgene payload of the vector comprising the transgene. Capsid yield was determined using enzyme-linked immunosorbent assays (ELISAs) by standard methods with an immobilized antibody directed against an epitope of the capsid as encoded by the vector comprising the capsid sequences. Percentage of intact vector genomes (% Full capsids) was calculated by dividing the vector genome productivity determined by ddPCR by the number of capsids determined by ELISA. […]

[2] = test system: HEK293 cells (AAV producer cells); test: AAV productivity with culture media additives supplemented two hours post-transfection, shake flasks (Example 3)
Protocol: as §1, §2

[3] = test system: second HEK293 cell line (AAV producer cells); test: AAV productivity at different DMSO concentrations, shake flasks (Example 7)
Protocol: (§3) Cell transfection was performed generally as described in Grieger et al. (2016) Molecular Therapy 24(2): 287-297. Briefly, transfection mixes were prepared by mixing calculated volumes of vector(s), transfection media, and polyethylenimine (PEI), all at ambient temperature, and allowed to equilibrate before the transfection mixes were added to the cells. Post-transfection bioreactor setpoint shifts were performed 2 hours post-transfection, and cells were harvested 72 hours post-transfection. Harvested cells were lysed as described in Grieger et al. (2016) Molecular Therapy 24(2): 287-297. Crude lysate samples were collected following centrifugation to remove cellular debris. Productivity was measured by vector genome titer and capsid yield. Vector genome (VG) titer was determined by droplet digital PCR (ddPCR) by standard methods using primer/probe sets specific to the transgene payload of the vector comprising the transgene. Capsid yield was determined using enzyme-linked immunosorbent assays (ELISAs) by standard methods with an immobilized antibody directed against an epitope of the capsid as encoded by the vector comprising the capsid sequences. Percentage of intact vector genomes (% Full capsids) was calculated by dividing the vector genome productivity determined by ddPCR by the number of capsids determined by ELISA.
The conditions of DMSO supplementation were further tested using different representative AAV particles. Experiments were performed with a second HEK293 cell line according to the methods described in Example 1 using shake flasks.
AAV productivity, in terms of vector genome (VG) titer (FIGS. 9A and 10A), capsid yield (FIGS. 9B and 10B), and percent intact vector genomes (% Full; FIGS. 9C and 10C), was measured as described in Example 1.

[4] = test system: second HEK293 cell line (AAV producer cells); test: AAV productivity with DMSO supplementation 30-120 minutes post-transfection, 3 L single-use bioreactors (Example 6); details: DMSO 120 minutes vs 30 minutes post-transfection, pH 7.0, 39° C.
Protocol: as §3
Based on the findings above, the effects of post-transfection pH, and the effect of supplementing the culture media with DMSO at 30-120 minutes post-transfection were further tested using a different representative AAV particle. Experiments were performed with a second HEK293 cell line according to the methods described in Examples 1 and 5 using 3 L single-use bioreactors.
AAV productivity, in terms of vector genome (VG) titer (FIG. 8A), capsid yield (FIG. 8B), and percent intact vector genomes (% Full; FIG. 8C), was measured as described in Example 1.

[5] = FIG. 9, 0.5% to 2.25% DMSO two hours post-transfection, up to a DMSO concentration of 1.5%
[6] = FIG. 10, 0.75% DMSO two hours post-transfection compared with 0% DMSO
[7] = FIG. 10, 1.5% DMSO two hours post-transfection compared with 0.75% DMSO

C[S+](C)[O-] [DMSO, dimethyl sulfoxide]
percent yield of full capsids [1]: higher percent yield of full capsids
VG titer ([2]; additive supplemented two hours post-transfection, ddPCR on crude lysate, over control conditions with no additive): general increase
percent full capsids ([2]; supplemented two hours post-transfection, as compared to the other additives): higher percent full capsids
percent full capsids ([3]; FIG. 9, 0.5% to 2.25% DMSO two hours post-transfection): increased
VG titer [3, 5]: increased
capsid titer [3, 5]: increased or comparable
percent full capsids ([3]; FIG. 9, 0.5%, 0.75%, 1.5% and 2.25% DMSO compared with each other): comparable
VG titer [3, 6]: increased
capsid titer [3, 6]: increased
percent full capsids [3, 6]: comparable
VG titer [3, 7]: comparable
capsid titer [3, 7]: decreased
percent full capsids [3, 7]: increased
VG titers [4]: similar
capsid yields [4]: similar
intact vector genomes [4]: similar
